# Measured values reported in patent publication US11865100B2, “Method for treatment of rosacea in patients aged 65 years and older” (Sol-Gel Technologies Ltd., priority 2019, dated 2024).
# How the values were obtained:
# [1] = system: papulopustular rosacea in patients aged 65 years and older; assay: Randomized, double-blind, vehicle-controlled 12-week study of E-BPO cream: Investigator Global Assessment (IGA) success rate; type: in vivo, human; conditions: Week 8
# Protocol: Description: A randomized, double-blind, multi-center, parallel group, active- and vehicle-controlled study of encapsulated 5% benzoyl peroxide cream (E-BPO) and vehicle cream was performed to assess the efficacy and safety of E-BPO compared to vehicle. Study duration was 12 weeks and included approximately 350 male and female patients afflicted with papulopustular rosacea. 71 patients (about 20%) were at least 65 years of age.
# Patients were admitted into the study after meeting all inclusion/exclusion criteria, including a clinical diagnosis of rosacea. Subjects with moderate to severe rosacea who were appropriate for systemic treatment were counseled regarding their treatment options by the Principal Investigator. At each visit, a 5-point IGA scale of rosacea and inflammatory lesion counts were performed and recorded.
# Dosing: Patients were randomly organized in a 2:1 ratio to the study product or vehicle treatment group, respectively. Patients applied the study product once daily for 12 weeks on the face in a thin layer to provide even distribution.
# Clinical and Safety Evaluations were performed at Baseline and Weeks 2, 4, 8 and 12.
# The success rate of the treatment of rosacea (defined as a 2-grade improvement in the IGA relative to Baseline at Weeks 2, 4, […] and 12, with an IGA of Clear or Almost Clear) in patients aged 65 years and older are shown in Table 1 and FIG. 1. […]
# rosacea = conditions: Gul 2008; BPO as sole active agent; cited from earlier work
compound,measurement,setting,value
"O=C(OOC(=O)c1ccccc1)c1ccccc1 [BPO, Benzoyl peroxide]",Success rate greater than the success rate achieved with vehicle alone (difference drug - vehicle),[1],25%
same,Response of rosacea lesions,rosacea,unresponsive
